# Assay: Inhibition of Staphylococcus aureus Sortase Adelta59 by FRET assay
row,Structure (SMILES),IC50 [µM]
1,O=C(/C=C/c1cccs1)Nc1ccc(N2CCCCC2)c(C(=O)O)c1,181
2,O=C(/C=C/c1ccco1)Nc1ccc(N2CCCCC2)c(C(=O)O)c1,463
3,COC(=O)c1cc(NC(=O)CCc2ccco2)ccc1N1CCOCC1,> 600
4,O=Cc1cc(NC(=O)/C=C/c2cccs2)ccc1N1CCOCC1,77
5,COC(=O)c1cc(N(C)C(=O)/C=C/c2cccs2)ccc1N1CCOCC1,571
6,O=C(/C=C/c1cccs1)Nc1ccc(N2CCOCC2)c(CO)c1,73
7,O=Cc1cc(NC(=O)/C=C/c2ccco2)ccc1N1CCOCC1,107
8,COC(=O)c1cc(NC(=O)C#Cc2cccs2)ccc1N1CCOCC1,165
9,COC(=O)c1cc(NC(=O)/C=C/c2ccco2)ccc1N1CCCCC1,131
10,COC(=O)c1cc(NC(=O)/C=C/c2cccs2)ccc1N1CCCCC1,92
11,NC(=O)c1cc(NC(=O)/C=C/c2cccs2)ccc1N1CCOCC1,105
12,COC(=O)c1cc(NC/C=C/c2cccs2)ccc1N1CCOCC1,249
13,COC(=O)c1cc(NC(=O)/C=C\c2cccs2)ccc1N1CCOCC1,61
14,O=C(C#Cc1cccs1)Nc1ccc(N2CCOCC2)c(C(=O)O)c1,183
15,O=C(CCc1ccco1)Nc1ccc(N2CCOCC2)c(C(=O)O)c1,> 600
16,COC(=O)c1cc(NC(=O)CCc2cccs2)ccc1N1CCOCC1,> 600
17,CN(C(=O)/C=C/c1ccco1)c1ccc(N2CCOCC2)c(C(=O)O)c1,> 600
18,COC(=O)c1cc(NC(=O)/C=C/c2cccs2)ccc1N1CCOCC1,71
19,COC(=O)c1cc(N(C)C(=O)/C=C/c2ccco2)ccc1N1CCOCC1,514
20,COC(=O)c1cc(NC(=O)/C=C/c2ccco2)ccc1N1CCOCC1,58
21,O=C(CCc1cccs1)Nc1ccc(N2CCOCC2)c(C(=O)O)c1,> 600
22,O=C(/C=C/c1cccs1)Nc1ccc(N2CCOCC2)c(C(=O)O)c1,75
23,O=C(/C=C\c1cccs1)Nc1ccc(N2CCOCC2)c(C(=O)O)c1,154
24,O=C(/C=C/c1ccco1)Nc1ccc(N2CCOCC2)c(CO)c1,111
25,O=C(O)c1cc(NC/C=C/c2cccs2)ccc1N1CCOCC1,> 600
26,O=C(/C=C/c1ccco1)Nc1ccc(N2CCOCC2)c(C(=O)O)c1,181
27,CN(C(=O)/C=C/c1cccs1)c1ccc(N2CCOCC2)c(C(=O)O)c1,> 600

# From ChEMBL document CHEMBL1240412, “Synthesis and structure activity relationship studies of novel Staphylococcus aureus Sortase A inhibitors” (Eur J Med Chem, 2010)
